Measurements reported in patent publication US20230045522A1, “COMPOSITIONS AND METHODS TO MODULATE GLUCOSE HOMEOSTASIS” (The Board of Supervisors of Louisiana State University and …, priority 2019, published 2023).
Blank lines part the entries; values can stand above or below the compound they belong to. Residues, ends and D or L forms follow the SMILES beside them. *: point of attachment. Cbz = O=C(OCc1ccccc1)*

What was measured:
C2C12 myotubes [1] = assay: Uptake of bioactives into C2C12 myotubes treated with PMI-5011 (UPLC/MS); conditions: PMI-5011 10 μg/mL
Procedure: (§1) C2C12 myotubes were incubated with vehicle control (DMSO) or PMI-5011 (10 μg/mL) for 1, 6, or 16 h as indicated. At each time point, (A) the medium and washes were collected at neutral pH, (B) this was followed by collection of surface bound compounds at acidic pH and cell lysates that were separated into soluble (Lysate) and insoluble fractions (Pellet) for analysis of content by UPLC/MS.
(§2) Murine C2C12 (ATCC; #CRL-1771) or rat L6 myoblasts (ATCC, #CRL-1458) were cultured in DMEM, high glucose (25 mM) with 10% FBS, 2 mM glutamine, and antibiotics (100 units/mL penicillin G and 100 μg/mL streptomycin) in a humidified chamber at 37° C. and 5% CO2. To obtain fully differentiated myotubes, the medium was exchanged for DMEM, high glucose with 2% horse serum, glutamine, and antibiotics when the myoblasts reached confluence. The medium was replaced every 48 hours, and the cells were maintained in this medium until fully differentiated, when the medium was exchanged for DMEM, low glucose (5 mM) with 2% horse serum. The myotubes were fully formed by the fourth day post-induction. The experiments analyzing the impact of each experimental material on insulin signaling in the presence of palmitate-induced insulin resistance were performed as described previously.^31 To determine uptake of bioactives into the myotubes, the cells were treated with PMI-5011 (10 μg/mL) for 0, 1, or 16 h prior to medium collection. At each time point, the cells were thoroughly rinsed with D-Hanks, pH 7.4 at 4° C., followed by incubation with D-Hanks buffer, pH 4.0 at 4° C. for 30 min with gentle rocking to remove surface-bound compounds. Cells were then collected in denaturing buffer containing 50 mM Tris-Cl, pH 7.4 with 150 mM NaCl, 1 mM EDTA, 1% Igepal, 0.5% Na-deoxycholate, 0.1% SDS, protease inhibitors (1 μM PMSF, 10 μg/mL aprotinin, 1 μg/mL pepstatin, 5 μg/mL leupeptin). The harvested cells were sonicated on ice and the supernatant and pellet were collected by centrifugation at 13,400×g for 10 min at 4° C.
(§3) UPLC/MS Analysis of Cell Preparations. […]

AMPK = AMPK Thr172 phosphorylation in C2C12 myotubes (immunoblot); type: cell-based, murine; conditions: for increase in phosphorylation of AMPK (phospho-AMPK to total AMPK, fold over 0-time): 1 hour of exposure, PMI-5011 10 μg/ml, AICAR 0.5 mM, metformin 2 mM
From the text: Results shown are representative of three independent experiments.

C2C12 myotubes [2] = conditions: mouse, 10 μg/mL
Procedure: as §1, §2, §3

[3] = Blood glucose in very high fat diet obese insulin-resistant mice, 6 h after gavage; type: in vivo, C57BL/6J male mice; conditions: 6 hour treatment, PMI-5011 500 mg/kg, KOE 500 mg/kg, KOF 100 mg/kg, 2 at 100 or 300 mg/kg, metformin 300 mg/kg
Procedure: (A) C57BL/6J male mice were fed a 60% kcal fat diet for 16 weeks prior to a 6 h treatment with labrasol (vehicle), metformin, PMI-5011, reconstituted PMI-5011 (RE=KOE+KOF), KOE, KOF, synthetic 2. […] Statistical significance is reported as mean−/+standard deviation, compared to (vehicle) control.
(A) Absolute (mg/dL) and (B) percent change in blood glucose levels from baseline for each treatment group six hours after treatment. […] Statistical significance is reported as mean−/+standard deviation, compared to (vehicle) control; ns, not significant; *p<0.05; ** p<0.01; *** p<0.001.
Glucose Homeostasis. […] To address this, C57BL/6J male mice were fed a very high fat diet (60% kcal fat, VHFD) over 16 weeks to induce obesity, prior to testing the ability of PMI-5011 (500 mg/kg), KOE (500 mg/kg), KOF (100 mg/kg), and purified 2 at 100 or 300 mg/kg body weight to alter blood glucose levels (FIG. 4). Metformin (300 mg/kg) was used as a positive control.
Animal Experiments. Male C57BL/6J mice were obtained from Jackson Laboratories (Bar Harbor, Me.). […] The animals were housed singly with a 12 h light-dark cycle at 24° C. […] Body weight was measured weekly. […]
Blood and Tissue Chemistry. Fasting glucose levels were measured in whole blood using a Breeze2 glucometer (Bayer, Leverkusen, Germany). […]

LKB1 = LKB1 Ser428 phosphorylation in skeletal muscle of mice; type: in vivo, C57BL/6J mice; conditions: gavage; compared to vehicle gavaged mice
Procedure: Tubulin or β-actin are included as a loading control.
Male C57BL/6J mice were obtained from Jackson Laboratories (Bar Harbor, Me., USA). All animal experiments were approved by the Rutgers University Animal Care and Use Committee (Protocol #04-023) and were in compliance with the NIH Guide for the Care and Use of Laboratory. The animals were housed singly with a 12 hour light-dark cycle at 24° C. At 4 weeks of age, the mice were placed on a very high fat diet (60 kcal % fat, D12492, Research Diets) for 16 weeks. Body weight was measured weekly. […] Blood glucose levels were assayed at baseline and each hour thereafter up to 6 hours post gavage. The mice were euthanized and tissues were collected for analysis at 6 hours after gavage.
C2C12 myotube lysates were prepared by sonication in 20 mM Tris pH 7.4, 1% Igepal CA630, 5 mM EDTA with 10 mM Na4P2O7, 100 mM NaF, 2 mM Na3VO4, 1 mM PMSF, 10 μg/ml aprotinin, 1 μg/ml pepstatin, and 5 μg/ml leupeptin. The tissue and cell lysates were centrifuged at 14,000×g for 10 minutes at 4° C. Protein concentrations were determined using BCA assays (Thermo Fisher Scientific, Rockford, Ill., USA) and the resulting supernatants (50 μg) were resolved by 10% SDS-PAGE and subjected to immunoblotting. […] Image J software was used for quantification of the western blot band intensities.

SIRT1 = SIRT1 protein expression in skeletal muscle of mice; type: in vivo, C57BL/6J mice; conditions: gavage
Procedure: Male C57BL/6J mice were obtained from Jackson Laboratories (Bar Harbor, Me., USA). […] The animals were housed singly with a 12 hour light-dark cycle at 24° C. At 4 weeks of age, the mice were placed on a very high fat diet (60 kcal % fat, D12492, Research Diets) for 16 weeks. Body weight was measured weekly. […] Blood glucose levels were assayed at baseline and each hour thereafter up to 6 hours post gavage. The mice were euthanized and tissues were collected for analysis at 6 hours after gavage.
The tissue and cell lysates were centrifuged at 14,000×g for 10 minutes at 4° C. Protein concentrations were determined using BCA assays (Thermo Fisher Scientific, Rockford, Ill., USA) and the resulting supernatants (50 μg) were resolved by 10% SDS-PAGE and subjected to immunoblotting. Nitrocellulose membranes were incubated with antibodies for 1-2 hours at RT or overnight at 4° C. Image J software was used for quantification of the western blot band intensities.

detection in the pellets of treated cells (C2C12 myotubes [1]; insoluble fraction): not detected | detection in the samples from treated cells (C2C12 myotubes [1]; not quantified): detected
Compound: O=c1cc(Oc2ccc(O)cc2)oc2cc(O)cc(O)c12 [6-demethoxycapillarisin]

Compound: NC(=O)c1ncn([C@@H]2O[C@H](COP(=O)(O)O)[C@@H](O)[C@H]2O)c1N [AICAR, 5-Aminoimidazole-4-carboxamide ribonucleotide]
increase in phosphorylation of AMPK (phospho-AMPK to total AMPK, fold over 0-time) (AMPK): 2.4 fold

detectability of 2 after 16 hours (C2C12 myotubes [2]): undetectable after 16 hours
Compound: COc1ccc(CCC(=O)c2ccc(O)cc2O)cc1 [Compound 2, 2′,4′-dihydroxy-4-methoxydihydrochalcone]

Compound: CC(C)C[C@@H](C=O)NC(=O)[C@H](CC(C)C)NC(=O)[C@H](CC(C)C)NC(=O)OCc1ccccc1 [MG132] (Cbz-Leu-Leu-Leu-aldehyde)
AMPK phosphorylation at Thr172 under proteasome inhibition (AMPK; MG132 10 μM, up to 4 hours): reduced AMPK phosphorylation

Compound: CN(C)C(=N)N=C(N)N [metformin]
blood glucose levels [3]: significantly reduced | increase in phosphorylation of AMPK (phospho-AMPK to total AMPK, fold over 0-time) (AMPK): 1.4 fold | phosphorylation of LKB1 Ser428 in skeletal muscle (LKB1): stimulate LKB1 Ser428 phosphorylation | protein expression of SIRT1 (SIRT1): did not observe an increase
